The experiment deals with human 11β-HSD1 (Homo sapiens, UniProt P28845). In words: biochemical. As to conditions: for inhibition at 0.1 µM: 1.5 h, read-out: Biological Test Example 2 Average % inhibition at 100 nm, at 100 nm; for IC50: Biological Test Example 2 IC50 Range, microsomes from CHO cells overexpressing human 11β-HSD1, SPA.

For eleven molecules, inhibition and IC50 results are on record in patent US8828985B2, “Carbamate and urea inhibitors of 11-beta-hydroxysteroid dehydrogenase 1” (Vitae Pharmaceuticals, Inc., priority 2008, dated 2014).

The structures appear in SMILES notation. A value given as a limit tells only on which side of the number the result lay.

Sequence of human 11β-HSD1 (P28845 whole entry): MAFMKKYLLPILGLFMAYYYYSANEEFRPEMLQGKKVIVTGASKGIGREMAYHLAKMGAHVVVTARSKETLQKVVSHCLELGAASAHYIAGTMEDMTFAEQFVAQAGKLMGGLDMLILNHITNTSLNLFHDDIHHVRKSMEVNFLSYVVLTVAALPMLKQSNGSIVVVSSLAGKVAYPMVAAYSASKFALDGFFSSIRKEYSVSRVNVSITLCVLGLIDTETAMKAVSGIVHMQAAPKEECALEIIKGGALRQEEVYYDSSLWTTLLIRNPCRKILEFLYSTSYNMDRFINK
Method: All reactions are carried out at room temperature in 96 well clear flexible PET Microbeta plates (PerkinElmer). […] The reaction is stopped by adding 50 μl of the SPA beads suspension containing 10 μM 18β-glycyrrhetinic acid, 5 mg/ml protein A coated YSi SPA beads (GE Healthcare) and 3.3 μg/ml of anti-cortisol antibody (East Coast Biologics) in Superblock buffer (Bio-Rad). The plates are then shaken for 120 minutes at room temperature, and the SPA signal corresponding to [^3H]cortisol is measured on a Microbeta plate reader.

As for `N#Cc1ccc2nc(N[C@@H]3CCN(C(=O)O[C@H]4C5CC6CC4C[C@](O)(C6)C5)C3)ccc2c1` [Example 90, (R)-(trans-1-hydroxy-4-adamantyl) 3-(6-cyanoquinolin-2-ylamino)pyrrolidine-1-carboxylate], the inhibition at 0.1 µM came to 95.6% and the IC50 was below 100 nM.
For `N#Cc1ccc2nc(N[C@@H]3CCN(C(=O)O[C@H]4C5CC6CC4C[C@](O)(C6)C5)C3)cnc2c1` [Example 91, (R)-(trans-1-hydroxy-4-adamantyl) 3-(6-cyanoquinoxalin-2-ylamino)pyrrolidine-1-carboxylate], the inhibition at 0.1 µM was 63.6% and the IC50 was below 100 nM.
In the case of `NC(=O)c1cnc(N[C@@H]2CCN(C(=O)O[C@H]3C4CC5CC3C[C@](O)(C5)C4)C2)c(Cl)c1` [Example 92, (R)-(trans-1-hydroxy-4-adamantyl) 3-(5-carbamoyl-3-chloropyridin-2-ylamino)pyrrolidine-1-carboxylate], the inhibition at 0.1 µM came to 60.2% and the IC50 was below 100 nM.
For the molecule `O=C(O[C@H]1C2CC3CC1C[C@](O)(C3)C2)N1CC[C@@H](Nc2ncc(Cl)cc2[N+](=O)[O-])C1` [Example 93, (R)-(trans-1-hydroxy-4-adamantyl) 3-(5-chloro-3-nitropyridin-2-ylamino)pyrrolidine-1-carboxylate], the half-inhibitory concentration (IC50) was below 100 nM.
`N#Cc1ccc2nc(N[C@@H]3CCN(C(=O)O[C@H]4C5CC6CC4C[C@](O)(C6)C5)C3)sc2c1` [Example 94, (R)-(trans-1-hydroxy-4-adamantyl) 3-(6-cyanobenzo[d]thiazol-2-ylamino)pyrrolidine-1-carboxylate]: the inhibition at 0.1 µM was determined as 90.8% and the IC50 was below 100 nM.
Regarding `O=C(O[C@H]1C2CC3CC1C[C@](O)(C3)C2)N1CC[C@@H](Nc2ccc3cc(Cl)ccc3n2)C1` [Example 95, (R)-(trans-1-hydroxy-4-adamantyl) 3-(6-chloroquinolin-2-ylamino)pyrrolidine-1-carboxylate], the inhibition at 0.1 µM turned out to be 90.6% and the IC50 was below 100 nM.
Turning to `O=C(O[C@H]1C2CC3CC1C[C@](O)(C3)C2)N1CC[C@@H](Nc2cnc3cc(Cl)ccc3n2)C1` [Example 96, (R)-(trans-1-hydroxy-4-adamantyl) 3-(6-chloroquinoxalin-2-ylamino)pyrrolidine-1-carboxylate], the inhibition at 0.1 µM was 101% and the IC50 is below 100 nM.
Regarding `O=C(O[C@H]1C2CC3CC1C[C@](O)(C3)C2)N1CC[C@@H](Nc2nc3ccc(Cl)cc3s2)C1` [Example 97, (R)-(trans-1-hydroxy-4-adamantyl) 3-(6-chlorobenzo[d]thiazol-2-ylamino)pyrrolidine-1-carboxylate], the inhibition at 0.1 µM worked out at 91.1% and the IC50 is below 100 nM.
Consider `CNC(=O)c1cc(Cl)cnc1N[C@@H]1CCN(C(=O)O[C@H]2C3CC4CC2C[C@](O)(C4)C3)C1` [Example 98, (R)-(trans-1-hydroxy-4-adamantyl) 3-(5-chloro-3-(methylcarbamoyl)pyridin-2-ylamino)pyrrolidine-1-carboxylate], for which the inhibition at 0.1 µM turned out to be 91.1% and the IC50 is below 100 nM.
Take `CN(C(=O)c1ccc(N[C@@H]2CCN(C(=O)O[C@H]3C4CC5CC3C[C@](O)(C5)C4)C2)nc1)C(C)(C)C` [Example 99, (trans-1-hydroxy-4-adamantyl) 3-(5-(tert-butyl(methyl)carbamoyl)pyridin-2-ylamino)pyrrolidine-1-carboxylate]: the inhibition at 0.1 µM stood at 21.8% and the IC50 is above 100 nM.
In the case of `CN(C(=O)c1cccnc1N[C@@H]1CCN(C(=O)O[C@H]2C3CC4CC2C[C@](O)(C4)C3)C1)C(C)(C)C` [Example 100, (trans-1-hydroxy-4-adamantyl) 3-(3-(tert-butyl(methyl)carbamoyl)pyridin-2-ylamino)pyrrolidine-1-carboxylate], the inhibition at 0.1 µM turned out to be 46.8% and the IC50 is below 100 nM.

In general, inhibition refers to the change of the read-out against control, counted positive when it falls. One may read the IC50 as the concentration that gives 50% inhibition. A higher IC50 goes with weaker potency.
